Test results as given in ChEMBL document CHEMBL5108072, “Discovery of Chlorofluoroacetamide-Based Covalent Inhibitors for Severe Acute Respiratory Syndrome Coronavirus 2 3CL Protease” (J Med Chem, 2022).

Assays:
[1] = system: SARS-CoV-2; assay: microbe, parasite or virus in culture; conditions: Severe acute respiratory syndrome coronavirus 2, omicron TY38-873 BA.2, HEK-293T
[2] = system: SARS-CoV-2; assay: microbe, parasite or virus in culture; conditions: Severe acute respiratory syndrome coronavirus 2, omicron TY38-873 BA.1, HEK-293T

SMILES	EC50 [1] [nM]	EC50 [2] [nM]
CC(C)C[C@H](NC(=O)c1cc2c(F)cccc2[nH]1)C(=O)NN(C[C@@H]1CCNC1=O)C(=O)[C@@H](F)Cl	126	35.6
CC(C)C[C@H](NC(=O)c1cc2c(F)cccc2[nH]1)C(=O)NN(C[C@@H]1CCNC1=O)C(=O)[C@H](F)Cl	17.1	9.01
COc1cccc2[nH]c(C(=O)N[C@@H](CC(C)C)C(=O)N[C@@H](C[C@@H]3CCNC3=O)C(=O)CO)cc12 [PF-00835231]	832	775
COc1cccc2[nH]c(C(=O)N[C@@H](CC(C)C)C(=O)NN(C[C@H]3CCNC3=O)C(=O)[C@H](F)Cl)cc12	121	58.8
COc1cccc2[nH]c(C(=O)N[C@@H](CC(C)C)C(=O)NN(C[C@@H]3CCNC3=O)C(=O)[C@H](F)Cl)cc12	18.3	10.1
O=c1nc(NO)ccn1[C@@H]1O[C@H](CO)[C@@H](O)[C@H]1O [N-HYDROXYCYTIDINE]	336	574
CC(C)C[C@H](NC(=O)c1cc2c(F)cccc2[nH]1)C(=O)NN(C[C@H]1CCNC1=O)C(=O)[C@H](F)Cl	131	58.7
